Measurements from patent US4373106A, “Sulfamoyl-substituted phenethylamine derivatives and process of producing them” (Yamanouchi Pharmaceutical Co., Ltd., priority 1980, dated 1983).
Read-outs that look alike come from different tables or passages of the source.

Key:
[1] = system: spontaneously hypertensive rats; assay: Antihypertensive effects in spontaneously hypertensive rats, oral, tail cuff method; format: in vivo; conditions: systolic blood pressure higher than 150 mmHg
Method: Oral administration: The systolic blood pressure was measured indirectly from the tail cuff method using a programmed electrosphygmanometer (Narco Bio-Systems Inc., PE-300) on spontaneously hypertensive rats having a systolic blood pressure higher than 150 mmHg, the results being shown in Table II.

[2] = system: α- and β-adrenergic; conditions: as disclosed in British Pat. No. 2,006,772; cited from earlier work
[3] = system: α-adrenergic; assay: α-Adrenergic blocking action: antagonism of the hypertensive response to phenylephrine in anesthetized, pentolinium-treated rats; format: in vivo; conditions: Rattus norvegicus, iv, read-out: α-adrenergic blocking ED50
Method: A. α-Adrenergic blocking action:
The blood pressure was measured in the rats anesthetized with urethane and treated with pentolinium.

[4] = rats anesthetized with urethane, treated with pentolinium, phenylephrine 10 μg/Kg i.v.

| Compound | Change in systolic blood pressure at stated dose p.o. ([1]; 10 mg/Kg p.o.) | ED50 [3, 4] [µg/kg] | ED50 [3] [µg/kg] | other results |
| --- | --- | --- | --- | --- |
| COc1ccccc1OCCNCC(O)c1ccc(C)c(S(N)(=O)=O)c1 (centres unmarked) [Compound A, 5-{1-hydroxy-2-[2-(2-methoxyphenoxy)ethylamino]ethyl}-2-methylbenzenesulfonamide, reference compound] | -35 ± 6.4 mmHg | 34 |  | α- and β-adrenergic blocking actions [2]: strong α- and β-adrenergic blocking actions |
| CNS(=O)(=O)c1cc(CC(C)NCCOc2ccccc2OC)ccc1OC.Cl (centres unmarked) [Example 4, 2-methoxy-5-{2-[2-(2-methoxyphenoxy)ethylamino]-2-methylethyl}-N-methylbenzenesulfonamide hydrochloride] |  |  | 0.35 |  |
| COc1ccccc1OCCNC(C)Cc1ccc(OC)c(S(=O)(=O)N(C)C)c1.Cl (centres unmarked) [Example 5, 2-Methoxy-5-{2-[2-(2-methoxyphenoxy)ethylamino]-2-methylethyl}-N,N-dimethylbenzenesulfonamide hydrochloride] |  |  | 0.26 |  |
| COc1ccccc1OCCNCCc1ccc(OC)c(S(N)(=O)=O)c1.Cl [Example 10, 2-methoxy-5-{2-[2-(2-methoxyphenoxy)ethylamino]ethyl}benzenesulfonamide hydrochloride] | -57 ± 5.6 mmHg | 5.9 |  |  |
| COc1ccccc1OCCNCCc1ccc(C)c(S(N)(=O)=O)c1.Cl [Example 11, 5-{2-[2-(2-Methoxyphenoxy)ethylamino]ethyl}-2-methylbenzenesulfonamide hydrochloride] |  | 12 |  | Change in systolic blood pressure at stated dose p.o. ([1]; 30 mg/Kg p.o.): -50 ± 4.7 mmHg |
| CCOc1ccccc1OCCNCCc1ccc(C)c(S(N)(=O)=O)c1.Cl [Example 12, 5-{2-[2-(2-Ethoxyphenoxy)ethylamino]ethyl}-2-methylbenzenesulfonamide hydrochloride] | -48 ± 2.0 mmHg | 7.3 |  |  |
| COc1ccccc1OCCNCCc1ccc(O)c(S(N)(=O)=O)c1 [Example 15, 2-Hydroxy-5-{2-[2-(2-methoxyphenoxy)ethylamino]ethyl}benzenesulfonamide] | -54 ± 6.2 mmHg | 1.3 |  |  |
| COc1ccccc1OCCNC(C)Cc1ccc(OC)c(S(N)(=O)=O)c1.Cl (centres unmarked) [Example 16, 2-Methoxy-5-{2-[2-(2-methoxyphenoxy)ethylamino]-2-methylethyl}benzenesulfonamide hydrochloride] | -71 ± 11.1 mmHg |  | 0.8 |  |
| CCOc1ccccc1OCCNC(C)Cc1ccc(OC)c(S(N)(=O)=O)c1.Cl (centres unmarked) [Example 20, 5-{2-[2-(2-Ethoxyphenoxy)ethylamino]-2-methylethyl}-2-methoxybenzenesulfonamide hydrochloride] |  |  |  | Change in systolic blood pressure at stated dose p.o. ([1]; 3 mg/Kg p.o.): -57 ± 4.2 mmHg |
| COc1ccccc1OCCNC(C)Cc1ccc(C)c(S(N)(=O)=O)c1.Cl (centres unmarked) [Example 25, 5-{2-[2-(2-Methoxyphenoxy)ethylamino]-2-methylethyl}-2-methylbenzenesulfonamide hydrochloride] | -46 ± 3.6 mmHg |  | 1.2 |  |
| CCC(Cc1ccc(C)c(S(N)(=O)=O)c1)NCCOc1ccccc1OC.Cl (centres unmarked) [Example 26, 5-{2-[2-(2-Methoxyphenoxy)ethylamino]-2-ethylethyl}-2-methylbenzenesulfonamide hydrochloride] | -46 ± 4.3 mmHg | 4 |  |  |
| Cc1ccc(N(CC2=NCCN2)c2cccc(O)c2)cc1 [Phentolamine, phentolamine, reference compound] | +7.8 ± 5.0 mmHg | 61 |  | Change in systolic blood pressure at stated dose p.o. ([1]; 100 mg/Kg p.o.): -70 ± 10.1 mmHg |
